From article PMC7767166, “Imidazole and Imidazolium Antibacterial Drugs Derived from Amino Acids” (Pharmaceuticals, 2020)
Like-named read-outs stand apart in the source and are kept apart here.

What was measured:
Bacillus subtilis 1904-E = assay: Bacterial growth inhibition assay (microdilution, OD 560 nm), MIC; format: cell-based; conditions: read-out: B. subtilis MIC
Description: (§1) The in vitro antibacterial activities of the synthesized compounds were examined against E. coli and B. subtilis. Bacteria were incubated in culture media with varying concentrations of the examined compound and the antibacterial properties were determined by observation of the optical density at 560 nm (bacteriostatic activity) and by the Resazurin cell viability assay (bactericidal activity). The corresponding minimal bactericidal concentration (MBC) and minimum inhibitory concentration (MIC) values that were obtained are summarized in Table 1 (please refer to Table S1 for MIC and MBC values in μM). Two bacterial strains were used in the antibacterial assays: Escherichia coli DH5α as a Gram-negative model and Bacillus subtilis 1904-E as a Gram-positive model. Both bacterial strains were donated to our laboratory and can be provided on request by contacting the corresponding authors. Both bacterial strains were incubated at 37 °C and the pre-inoculum incubation time was of 24 h. Liquid Luria-Bertani (LB) medium was used for E. coli DH5α and nutrient broth (NB) for B. subtilis. The bacteria cell bank suspensions were thawed and inoculated in the appropriate liquid broth for 24 h at 37 °C with mild agitation. A dilution from these culture solutions was used for the following tests, corresponding to an inoculum of 1 × 10^7 CFU/mL. Stock solutions of all the tested compounds were prepared in DMSO at a concentration of 100 mg/mL, aliquoted, and stored at −20 °C. (A) Bacterial growth inhibition assay: Conditions here described are for testing 6 different concentrations of the compounds, with triplicates of each condition. Therefore, 4 compounds were tested per plate. An adapted version of the microdilution method was used. Firstly, the imidazole derivatives were dissolved in the corresponding broth at 2× the highest tested concentration. Then, 100 μL of the 2× solutions were added to the first (A) and second (B) row wells of a 96-well plate. In addition, 100 μL of liquid medium had been previously added to rows B to F. Subsequent dilutions at 1:2 are prepared in rows B to F, by withdrawal of 100 μL from the previous row (more concentrated) to the next row (half diluted), mixing well. Then, 100 μL were discarded from the last row (F). By now, there are 100 μL in each well, and 100 μL of bacterial suspension at 10^7 CFU/mL were added to each well. Then, the 96-well plates were incubated for 24 h at 37 °C under mild agitation. Bacterial growth was controlled both by visual observation of the turbidity in each well and by measuring the optical density (OD) at 560 nm at time 0 h and 24 h. Results are recorded as the lowest concentration of antimicrobial agent that inhibits visible growth of the bacteria, and were compared with the OD variation of a control culture containing E. coli or B. subtilis (+ control) and of solution of the tested compounds without bacteria (- control).

Escherichia coli DH5α = assay: as above; format: cell-based; conditions: read-out: E. coli MIC
Description: as §1

[1] = Critical aggregation concentration by pyrene fluorescence (I1/I3); format: physicochemical; conditions: for CAC Fluorescence, CCM:W, CAC1 / CAC Fluorescence, CCM:W, CAC2: 1/1 bacterial cell culture medium/water; for CAC Fluorescence, CCM:W, CAC1 / CAC Fluorescence, CCM:W, CAC2 / CAC Fluorescence, W: 25 °C; for CAC Fluorescence, CCM:W, CAC1: first break point; for CAC Fluorescence, CCM:W, CAC2: second break point; for CAC Fluorescence, W: in water, from the break point
From the text: To investigate the microenvironment of the critical aggregation concentration (CAC) for self-assembly in water and in the bacterial cell culture medium by fluorescence, the intensity ratio of two of the peaks (I1/I3) of the pyrene fluorescence spectrum was used. Plots of the pyrene I1/I3 ratio as a function of the total surfactant concentration show a typical sigmoidal decrease in the region where self-assembly takes place. At low concentrations, this ratio is larger as it corresponds to a polar environment for pyrene. When the surfactant concentration increases this ratio decreases rapidly, as the self-assembly favors the location of pyrene in a more hydrophobic environment, until reaching a roughly constant value because of the full incorporation of the probe into the hydrophobic region of the aggregates. Different approaches have been used to estimate CAC values from I1/I3 ratios. The most common approach is the use of the break points, either directly or by extrapolating the values from the intersection of the two straight lines defined at the constant and variable regions of the I1/I3 sigmoidal curve. As CAC represents the threshold of concentration at which self-aggregation starts, the corresponding value can be estimated from the break point at lower concentration (see Figures S9–S14). Fluorescence studies were carried out using MilliQ® water and 1/1 MilliQ® water/bacterial cell culture medium, because with the pure cell culture medium, a strong broad fluorescence emission band was observed precluding an accurate analysis. […] The corresponding CACs obtained in water and in the 1/1 mixture of water/bacterial cell culture medium by fluorescence are shown in Table 2. Pyrene was used as a fluorescence probe to determine the CAC of the compounds in water and 1/1 water/bacterial cell culture medium at 25 ± 1 °C. Fluorescence measurements were performed with a Spex Fluorolog 3-11 instrument equipped with a 450 W xenon lamp (right angle mode). Firstly, a stock pyrene solution of 1.98 × 10^−4 mol/L was prepared in ultrapure methanol. Then, solutions of the imidazole and imidazolium salt compounds (ranging from 6 to 3 × 10^−3 mmol/L) were prepared in different vials and 5 μL of pyrene solution was transferred into the vials, reaching a final pyrene concentration of 9.89 × 10^−7 mol/L in each vial. Fluorescence spectra of pyrene were recorded from 200 to 650 nm after excitation at 337 nm, and the spectra were not corrected for the Xe lamp spectral response. The slit width was set at 5 nm for both excitation and emission. The peak intensities at 373 and 385 nm were determined as I1 and I3, respectively. The ratios of the peak intensities at 373 and 385 nm (I1/I3) for the emission spectra were recorded as a function of the logarithm of concentration. The CAC values were taken from the break point. Samples were excited with a 337 nm NanoLED.

E. coli and B. subtilis = assay: MBC to MIC ratio (bactericidal vs bacteriostatic); format: cell-based; conditions: from exact MBC and MIC values of Table 1
From the text: The Gram-positive cell wall is composed of a thick, multilayered peptidoglycan sheath outside of the cytoplasmic membrane, while the Gram-negative cell wall is composed of an outer membrane linked by lipoproteins to thin, mainly single-layered peptidoglycan. The peptidoglycan is located within the periplasmic space that is created between the outer and inner membranes. […] Compounds with MBC/MIC >4 are considered to be bacteriostatic. In all the cases in which we could obtain exact MBC and MIC values (Table 1, entries 2, 3, 8 and 9), their ratio was equal to or minor than four.

[2] = Solubility in media of the fluorescence studies; format: physicochemical; conditions: water and 1/1 water/bacterial cell culture medium
Description: Fluorescence studies were carried out using MilliQ® water and 1/1 MilliQ® water/bacterial cell culture medium, because with the pure cell culture medium, a strong broad fluorescence emission band was observed precluding an accurate analysis. […] The corresponding CACs obtained in water and in the 1/1 mixture of water/bacterial cell culture medium by fluorescence are shown in Table 2.

[3] = 24 h, 37 °C, nutrient broth, minimum of three experiments
[4] = mode of at least three experiments
[5] = 24 h, 37 °C, LB medium, minimum of three experiments
[6] = bacterial cell culture medium/water

Row | Structure (SMILES) | MIC (Bacillus subtilis 1904-E; [3]) [mg/L] | MIC (Bacillus subtilis 1904-E; [4]) [µM] | MIC (Escherichia coli DH5α; [5]) [mg/L] | MIC (Escherichia coli DH5α; [4]) [µM] | CAC Fluorescence, CCM:W, CAC1 [1] [mM] | CAC Fluorescence, CCM:W, CAC2 [1] [mM] | CAC Fluorescence, W [1] [mM] | first break point (I1/I3 vs concentration) [1, 6] [µM] | second break point (I1/I3 vs concentration) [1, 6] | MIC (Bacillus subtilis 1904-E; 24 h, mode of at least three experiments) [µM] | melting point [°C] | solubility [2] | bactericidal or bacteriostatic (MBC to MIC ratio equal to or less than four = bactericidal) (E. coli and B. subtilis)
1 | CCCCCCCCCCCCNC(=O)[C@H](C(C)C)n1ccnc1 [Compound 1a] | 16 | 48 | > 2000 | > 6000 | 0.004 | 0.045 | 0.085 |  |  |  |  |  | 
2 | CCCCCCCCCCCCNC(=O)[C@H](C(C)C)n1cc[n+](Cc2ccccc2)c1 [Compound 1b] | 4 | 9 | 128 | 288 | 0.006 | 0.048 | 0.084 | 6 | ca. 48 μM |  |  |  | true bactericidal activity
3 | CCCCCCCCCCCCNC(=O)[C@H](C(C)C)n1cc[n+](Cc2cccc(C[n+]3ccn([C@@H](C(=O)NCCCCCCCCCCCC)C(C)C)c3)c2)c1 [Compound 1c] | 16 | 19 | 256 | 269 | 0.016 | 0.21 | 0.010 |  |  |  |  |  | true bactericidal activity

More lines, main results first:

Row | MIC (Bacillus subtilis 1904-E; [3]) [mg/L] | MIC (Bacillus subtilis 1904-E; [4]) [µM] | MIC (Escherichia coli DH5α; [5]) [mg/L] | MIC (Escherichia coli DH5α; [4]) [µM] | CAC Fluorescence, CCM:W, CAC1 [1] [mM] | CAC Fluorescence, CCM:W, CAC2 [1] [mM] | CAC Fluorescence, W [1] [mM] | first break point (I1/I3 vs concentration) [1, 6] [µM] | second break point (I1/I3 vs concentration) [1, 6] | MIC (Bacillus subtilis 1904-E; 24 h, mode of at least three experiments) [µM] | melting point [°C] | solubility [2] | Structure (SMILES) | bactericidal or bacteriostatic (MBC to MIC ratio equal to or less than four = bactericidal) (E. coli and B. subtilis)
4 | > 2000 | > 9000 | > 2000 | > 9000 | 2.89 | 5.4 | 4.31 |  |  |  |  |  | CCCCNC(=O)[C@H](C(C)C)n1ccnc1 [Compound 2a] | 
5 | > 1000 |  | > 2000 | > 5000 | 3.46 | 8.4 | 4.57 |  |  | 2590 | 33 |  | CCCCNC(=O)[C@H](C(C)C)n1cc[n+](Cc2ccccc2)c1 [Compound 2b] | 
6 | 128 | 180 | 1000 | 1440 | 2.25 | 3.54 | 2.34 |  |  |  | 85 |  | CCCCNC(=O)[C@H](C(C)C)n1cc[n+](Cc2cccc(C[n+]3ccn([C@@H](C(=O)NCCCC)C(C)C)c3)c2)c1 [Compound 2c] | 
7 | 16 | 42 | 1000 | 2660 | 0.018 | 0.325 | 0.033 |  |  |  | 56.1 |  | CCCCCCCCCCCCNC(=O)[C@H](Cc1ccccc1)n1ccnc1 [Compound 3a] | 
8 | 4 | 7 | 32 | 57 | 0.063 | 0.33 | 0.098 |  |  |  | 16 |  | CCCCCCCCCCCCNC(=O)[C@H](Cc1ccccc1)n1cc[n+](Cc2ccccc2)c1 [Compound 3b] | true bactericidal activity
9 | 64 | 62 | 2000 | 1990 |  |  |  |  |  |  | 60 | solubility problems | CCCCCCCCCCCCNC(=O)[C@@H](Cc1ccccc1)n1cc[n+](Cc2cccc(C[n+]3ccn([C@@H](Cc4ccccc4)C(=O)NCCCCCCCCCCCC)c3)c2)c1 [Compound 3c] | true bactericidal activity
